# What was measured:
# EGFP-HP1β = assay: FRAP dynamics of EGFP-HP1β in living cells; type: cell-based, mouse; settings: preexposure to 75 μM TBB (FIG. 20)
# Description: MEFs were seeded in 2-well Lab-Tek chambers (Nunc) after transfection with the EGFP-HP1β construct. Before imaging, growth medium was replaced with phenol-red free L15 imaging medium. Live cell imaging and photobleaching experiments were performed using a 40× 1.2 NA water immersion lens on a Zeiss LSM 510 Meta confocal microscope (using a heating chamber to maintain the cells at […]) with the 488 nm line of an Argon laser operating at 6.1 A.
# FRAP analysis was performed by a method previously established in our lab 27. For low-bleach FRAP (see FIG. S1), selected regions of HC and EC were simultaneously bleached in a diffraction-limited spot with a pulse of 2 iterations at 100% of the […] Ar laser. Post-bleach images were acquired at a lower frequency of an image every 400 msec. Image bleach was corrected separately for EC and HC regions using a nearby unbleached cell. For high-bleach FRAP experiments, photobleaching was with 35 iterations at the same laser output, and images were collected every 290 msec. The normalized curves were plotted in GraphPad Prism, and recovery curves were fitted to a single order exponential equation Y=Ymax*(1−exp(−K*X)) to yield a recovery constant K; shown to be different among groups by the sum of squares f-test at p<0.05.
# HP1βT51P levels = assay: anti-HP1βT51P detection in cell extracts; type: cell-based
# γH2AX = γH2AX foci formation / staining in MEFs after IR; type: cell-based, mouse
# Description: Cell staining and immunofluorescence analyses were carried out as described previously^2. Briefly, transfected and untransfected cells were grown on coverslips and subjected to different treatments as indicated in the text prior to fixation. Cells were fixed using 4% formaldehyde for 10-15 min, followed by solubilisation and blocking with 3% BSA in 1×PBS, 0.05% Tween-20, 0.05% Triton. Imaging was performed on a Zeiss LSM510 Meta confocal microscope, using a 40× objective with fixed optical slice, laser power and detector/amplifier settings for all samples across each individual experiment to allow comparison. Quantitative analysis for HP1βT51P and γH2AX staining was performed using mean per-nucleus intensity to avoid any discrepancy in the definition or counting of foci. This was performed on identically stained and imaged samples by estimation of raw pixel intensity values for a defined number of cells, specified for each experiment, through the Zeiss LSM software, and comparison of the different groups by one-way ANOVA and Dunnet's post test. […] The plates were imaged and analyzed using a Cellomics high content screening microscope, using a 40× non-immersion objective. […] 500 cells were analysed per well, and standard errors calculated from an average of the means of 8 wells.
Structure (SMILES),changes in FRAP dynamics of EGFP-HP1β triggered by DNA damage (EGFP-HP1β),"HP1βT51P levels detected by anti-HP1βT51P in cell extracts (HP1βT51P levels; TBB at 75 μM for 6 hrs, with and without etoposide)","γH2AX foci formation (γH2AX; MEFs pre-exposed to 75 μM TBB, 5 min after 3 Gy IR)","pixel intensity of γH2AX staining after damage (γH2AX; TBB preexposure, n=20 per sample, p<0.01)",HP1βT51P species detected by anti-HP1βT51P in cell extracts (HP1βT51P levels; etoposide treatment)
"Brc1c(Br)c(Br)c2[nH]cnc2c1Br [TBB, 4,5,6,7-tetrabromo-benzimidazole]",suppresses in living cells the changes in FRAP dynamics,diminishes both the background detection and etoposide-induced enhancement of HP1βT51P levels,suppresses γH2AX foci formation,reduced in a dose-dependent manner,–
COc1cc([C@@H]2c3cc4c(cc3[C@@H](O[C@@H]3O[C@@H]5CO[C@@H](C)O[C@H]5[C@H](O)[C@H]3O)[C@H]3COC(=O)[C@H]23)OCO4)cc(OC)c1O [etoposide],–,–,–,–,enhanced in a dose-dependent manner
